Experimental data published in publication PMC9481026 (PLoS ONE, 2022).
Values after ≈ are worked out from the molar mass of the structure shown. Read-outs that look alike come from different tables or passages of the source.

How the values were obtained:
[1] = test system: Vero cells
[2] = test system: RVFV strain MP-12; assay: microbe, parasite or virus in culture; assay type: cell-based, Rift Valley fever virus
[3] = test system: C. neoformans; assay: microbe, parasite or virus in culture; assay type: cell-based; conditions: for MIC80: Cryptococcus neoformans, read-out: C. neoformans (MIC80, μM)
[4] = test system: LACV; assay: microbe, parasite or virus in culture; assay type: cell-based, La Crosse virus; conditions: for EC50: read-out: LACV EC50
[5] = target: T1, Human RNase H1 (Homo sapiens, UniProt O60930); assay: biochemical
T1 construct: made in house; host or cells: E. coli
T1 sequence (O60930 1-286): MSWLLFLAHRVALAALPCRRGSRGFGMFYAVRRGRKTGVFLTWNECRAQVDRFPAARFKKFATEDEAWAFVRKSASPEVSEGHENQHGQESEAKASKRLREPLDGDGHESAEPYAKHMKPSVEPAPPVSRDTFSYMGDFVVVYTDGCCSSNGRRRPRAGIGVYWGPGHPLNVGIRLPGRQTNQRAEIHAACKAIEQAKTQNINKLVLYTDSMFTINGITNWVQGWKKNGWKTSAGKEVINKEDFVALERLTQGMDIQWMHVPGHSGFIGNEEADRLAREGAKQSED

[6] = test system: RVFV strain MP-12; assay: microbe, parasite or virus in culture; assay type: cell-based, Rift Valley fever virus; conditions: read-out: A549 EC50
[7] = test system: Staphylo-coccus spp.; assay: organism not typed; assay type: cell-based; conditions: for MIC80: read-out: Staphylo-coccus spp. (MIC80, μM)
[8] = test system: RVFV MP-12; assay: microbe, parasite or virus in culture; assay type: cell-based, Rift Valley fever virus; conditions: read-out: Estimated EC50
[9] = test system: A549 cells
[10] = test system: HepDES19
[11] = test system: ZIKV; assay: microbe, parasite or virus in culture; assay type: cell-based, Zika virus; conditions: for EC50: read-out: ZIKV EC50
[12] = in vitro; conditions: African green monkey
[13] = in vitro; conditions: human
[14] = test system: E. coli; assay: microbe, parasite or virus in culture; assay type: cell-based; conditions: for MIC80: Escherichia coli, read-out: E. coli (MIC80, μM)
[15] = in vitro; conditions: human; remark: listed apart in the source
[16] = read-out: Human RNase H1 (IC50)
[17] = Rift Valley fever virus, Vero, 24 h
[18] = Rift Valley fever virus, Vero, read-out: RVFV (EC50, μM)

Row | Compound | CC50 [1] | EC50 ([2]; read-out: EC50) | EC50 ([2]; read-out: Vero EC50) | C. neoformans (MIC80, μM) [3] | EC50 [4] | IC50 [5, 16] | EC50 [6] | EC50 [8] | CC50 [9] | CC50 [10] | EC50 [11] | EC50 [2, 17] | MIC80 [3] | CC50 ([12]; CC50) | CC50 [13] | EC50 ([8]; Rift Valley fever virus, Vero) | MIC80 [7] | also measured
1 | CCc1cccc(N=C(C)c2c(C)cc(=O)n(O)c2O)c1 [Compound 518] | > 120 µM | 19.5 µM | 20 µM | 24 µM | > 120 µM | 436 µM | 17.2 µM | 7 µM | 16.5 µM | 91.4 µM | > 120 µM | – | – | – | – | – | – | Staphylo-coccus spp. (MIC80, μM) [7]: 67 µM
2 | Cc1cc(O)c(=O)c(O)cc1C(=O)c1ccccc1O [Compound 359] | – | – | – | – | – | – | – | – | – | – | – | 5.1 µM | 24 µM (≈ 6.53 µg/mL) | > 120 µM | 19.4 µM | 4 µM | – | IC50 [5]: 65 µM
3 | Cc1cc(O)c(=O)c(O)cc1C(=O)c1ccc(Br)cc1 [Compound 358] | > 120 µM | – | – | 11 µM | – | 43 µM | – | – | – | 12.5 µM | – | – | – | – | – | – | – | EC50 ([2]; read-out: RVFV (EC50)): 9 µM; E. coli (MIC80, μM) [14]: 20 µM
4 | Cc1cc(O)c(=O)c(O)cc1C(=O)c1ccco1 [Compound 309] | – | – | – | – | – | – | – | – | – | – | – | 1.6 µM | – | > 120 µM | – | – | – | EC50 ([2]; Rift Valley fever virus, Vero, read-out: Vero EC50): 1.6 µM; CC50 ([12]; Vero CC50): > 120 µM; LACV EC50 [4]: activity against LACV; EC50 ([4]; La Crosse virus, Vero C1008, 24 h): 14.6 µM; EC50 ([6]; Rift Valley fever virus, A549, 24 h): 5.9 µM; CC50 [15]: 98.1 µM; ZIKV EC50 [11]: not the unrelated flavivirus, Zika virus; EC50 ([11]; Zika virus, Vero C1008, 48 h): > 120 µM
5 | CCCCSc1ccc(SCCCC)c(O)c(=O)c1O [Compound 694] | – | – | – | – | – | – | – | – | – | – | – | 3.7 µM | 2.3 µM (≈ 0.723 µg/mL) | > 120 µM | 1.8 µM | 5.62 µM | 9 µM (≈ 2.83 µg/mL) | CC50 ([1]; African green monkey): 22.1 µM
6 | CC(C)c1ccc(O)c(=O)c(O)c1 [Compound 46, β-thujaplicinol, reference compound] | – | – | – | – | – | – | – | – | – | – | – | – | 8 µM (≈ 1.44 µg/mL) | – | – | – | 20 µM (≈ 3.6 µg/mL) | EC50 [2, 18]: 13.8 µM; CC50 ([12]; CC50 Vero): > 120 µM; MIC80 [14]: 44 µM (≈ 7.93 µg/mL)
7 | CC(C)Sc1ccc(SC(C)C)c(O)c(=O)c1O [Compound 696] | – | – | – | – | – | – | – | – | – | – | – | 6 µM | 1.5 µM (≈ 0.43 µg/mL) | – | 14.1 µM | 12 µM | 13 µM (≈ 3.72 µg/mL) | MIC80 [14]: 20 µM (≈ 5.73 µg/mL)
8 | Cc1cc(O)c(=O)c(O)cc1C(=O)N1CCCCC1 [Compound 390] | > 120 µM | 11.9 µM | 11.9 µM | 11 µM | > 120 µM | 106 µM | 9.4 µM | 0.1 µM | 224 µM | 29.8 µM | > 120 µM | – | – | – | – | – | – | –
9 | Cc1cc(O)c(=O)c(O)cc1C(=O)c1ccccc1O [Compound 311] | – | 11.8 µM | – | 15 µM | – | 26 µM | – | 3.16 µM | – | – | – | – | – | – | – | – | – | Staphylo-coccus spp. (MIC80, μM) [7]: 67 µM; E. coli (MIC80, μM) [14]: 30 µM
10 | CC(=O)c1c(C)cc(O)c(=O)c(O)c1-c1ccccc1 [Compound 330] | > 120 µM | 10.4 µM | 10.4 µM | 4.0 µM | > 120 µM | 476 µM | 42.6 µM | 2 µM | > 240 µM | 56.2 µM | 32.7 µM | – | – | – | – | – | – | Staphylo-coccus spp. (MIC80, μM) [7]: 44 µM
11 | CC(=O)c1c(C)cc(O)c(=O)c(O)c1Br [Compound 320] | > 120 µM | 34 µM | 34 µM | 49 µM | > 120 µM | 37 µM | 90.3 µM | 2 µM | 154 µM | 49.5 µM | > 120 µM | – | – | – | – | – | – | –
12 | Cc1cc(O)c(=O)c(O)c(O)c1C(=O)c1ccc(-c2ccccc2)cc1 [Compound 362] | – | – | – | – | – | – | – | – | – | – | – | 2.5 µM | 24 µM (≈ 8.36 µg/mL) | 80 µM | 5.4 µM | 6 µM | – | CC50 ([1]; African green monkey): 77.8 µM; EC50 [2, 18]: 2.6 µM; IC50 [5]: 212 µM
13 | O=c1c(O)cccc(SCc2ccccc2)c1O [Compound 702] | – | – | – | – | – | – | – | – | – | – | – | 8.8 µM | 0.55 µM (≈ 0.143 µg/mL) | > 120 µM | – | 7 µM | 13 µM (≈ 3.38 µg/mL) | CC50 ([12]; CC50 Vero): 35.6 µM; IC50 [5]: 34 µM; MIC80 [14]: 9 µM (≈ 2.34 µg/mL)
